Tested on: MV-4-11 cells
Assay: Gene expression microarray analysis (Affymetrix PrimeView) and GSEA
Type: cell-based, human
Design: RFU PODN (11730768_x_at) / Fold change /veh PODN (11730768_x_at) / RFU LINC00158 (11744669_a_at) / Fold change /veh LINC00158 (11744669_a_at) / RFU DUSP10 (11751237_a_at) / Fold change /veh DUSP10 (11751237_a_at) / RFU ID3 (11757404_x_at) / Fold change /veh ID3 (11757404_x_at) / RFU PLEKHG5 (11737974_s_at) / Fold change /veh PLEKHG5 (11737974_s_at) / RFU LRRC4B (11730491_at) / Fold change /veh LRRC4B (11730491_at) / RFU GIMAP4 (11747438_a_at) / Fold change /veh GIMAP4 (11747438_a_at) / RFU KRT8 (11758183_x_at) / Fold change /veh KRT8 (11758183_x_at) / RFU CNN1 (11734310_a_at) / Fold change /veh CNN1 (11734310_a_at) / RFU VPS37D (11726825_at) / Fold change /veh VPS37D (11726825_at) / RFU C10orf10 (11716522_x_at) / Fold change /veh C10orf10 (11716522_x_at) / RFU KIR2DL2 /// KIR2DL4 /// KIR2DL5A /// KIR2DL5B /// KIR2DS1 /// KIR2DS2 /// KIR2DS3 /// KIR2DS4 /// KIR3DL3 /// KIR3DL3 /// KIR3DS1 (11738374_at) / Fold change /veh KIR2DL2 /// KIR2DL4 /// KIR2DL5A /// KIR2DL5B /// KIR2DS1 /// KIR2DS2 /// KIR2DS3 /// KIR2DS4 /// KIR3DL3 /// KIR3DL3 /// KIR3DS1 (11738374_at) / RFU C1QL1 (11718748_at) / Fold change /veh C1QL1 (11718748_at) / RFU TMPRSS4 (11747572_a_at) / Fold change /veh TMPRSS4 (11747572_a_at) / RFU HAMP (11756126_x_at) / Fold change /veh HAMP (11756126_x_at) / RFU RNFT2 (11725882_a_at) / Fold change /veh RNFT2 (11725882_a_at) / RFU NR4A2 (11747474_a_at) / Fold change /veh NR4A2 (11747474_a_at) / RFU ABCC12 (11746883_a_at) / Fold change /veh ABCC12 (11746883_a_at) / RFU TMEM136 (11760407_x_at) / Fold change /veh TMEM136 (11760407_x_at) / RFU CLDN22 /// WWC2 (11732394_at) / Fold change /veh CLDN22 /// WWC2 (11732394_at) / RFU HLA-DPB1 (11760878_x_at) / Fold change /veh HLA-DPB1 (11760878_x_at) / RFU SPINT1 (11716480_a_at) / Fold change /veh SPINT1 (11716480_a_at) / RFU GAP43 (11754022_s_at) / Fold change /veh GAP43 (11754022_s_at) / RFU A4GNT (11735810_at) / Fold change /veh A4GNT (11735810_at) / RFU PRB3 (11715151_x_at) / Fold change /veh PRB3 (11715151_x_at) / RFU TUBB4B (11761932_at) / Fold change /veh TUBB4B (11761932_at) / RFU CAPN14 (11732068_a_at) / Fold change /veh CAPN14 (11732068_a_at) / RFU TMCC2 (11721928_a_at) / Fold change /veh TMCC2 (11721928_a_at) / RFU IRGQ (11745062_a_at) / Fold change /veh IRGQ (11745062_a_at) / RFU FAM174B (11720279_a_at) / Fold change /veh FAM174B (11720279_a_at) / RFU TMPRSS4 (11748680_a_at) / Fold change /veh TMPRSS4 (11748680_a_at) / RFU FAM212B (11763350_a_at) / Fold change /veh FAM212B (11763350_a_at) / RFU PLEKHG5 (11743358_a_at) / Fold change /veh PLEKHG5 (11743358_a_at) / RFU ZSCAN30 (11745921_a_at) / Fold change /veh ZSCAN30 (11745921_a_at) / RFU CMKLR1 (11741424_a_at) / Fold change /veh CMKLR1 (11741424_a_at) / RFU LOC101060620 /// MAPK8IP1 (11723275_at) / Fold change /veh LOC101060620 /// MAPK8IP1 (11723275_at) / RFU SPTSSB (11747773_x_at) / Fold change /veh SPTSSB (11747773_x_at) / RFU PRSS12 (11739890_at) / Fold change /veh PRSS12 (11739890_at) / RFU BIN1 (11741810_x_at) / Fold change /veh BIN1 (11741810_x_at) / RFU WNT11 (11732464_a_at) / Fold change /veh WNT11 (11732464_a_at) / RFU C10orf10 (11716521_a_at) / Fold change /veh C10orf10 (11716521_a_at) / RFU C5orf56 (11738089_at) / Fold change /veh C5orf56 (11738089_at) / RFU CYB561 (11721691_x_at) / Fold change /veh CYB561 (11721691_x_at) / RFU ANKRD19P (11752326_a_at) / Fold change /veh ANKRD19P (11752326_a_at) / RFU OR2T12 /// OR2T33 /// OR2T8 (11738714_s_at) / Fold change /veh OR2T12 /// OR2T33 /// OR2T8 (11738714_s_at) / RFU VCAN (11748164_a_at) / Fold change /veh VCAN (11748164_a_at) / RFU JSRP1 (11732532_at) / Fold change /veh JSRP1 (11732532_at) / RFU KRTAP10-11 (11738290_x_at) / Fold change /veh KRTAP10-11 (11738290_x_at) / RFU MYO3A (11730013_a_at) / Fold change /veh MYO3A (11730013_a_at) / RFU EBF3 (11725865_a_at) / Fold change /veh EBF3 (11725865_a_at) / RFU CAMK2N1 (11719241_x_at) / Fold change /veh CAMK2N1 (11719241_x_at) / RFU C5orf56 (11738088_a_at) / Fold change /veh C5orf56 (11738088_a_at) / RFU OLFML3 (11715873_a_at) / Fold change /veh OLFML3 (11715873_a_at) / RFU LOC100653217 /// NTM (11731650_a_at) / Fold change /veh LOC100653217 /// NTM (11731650_a_at) / RFU MAPK11 (11762145_a_at) / Fold change /veh MAPK11 (11762145_a_at) / RFU FIZ1 (11724087_x_at) / Fold change /veh FIZ1 (11724087_x_at) / RFU OASL (11726364_x_at) / Fold change /veh OASL (11726364_x_at) / RFU SOX15 (11748057_x_at) / Fold change /veh SOX15 (11748057_x_at) / RFU CD79A (11719716_a_at) / Fold change /veh CD79A (11719716_a_at) / RFU HIST1H1D (11736915_at) / Fold change /veh HIST1H1D (11736915_at) / RFU CASKIN2 (11723855_a_at) / Fold change /veh CASKIN2 (11723855_a_at) / RFU LOC730098 (11760151_x_at) / Fold change /veh LOC730098 (11760151_x_at) / RFU OR4N2 (11742367_at) / Fold change /veh OR4N2 (11742367_at) / RFU PRRT2 (11749266_a_at) / Fold change /veh PRRT2 (11749266_a_at) / RFU SNX32 (11753110_a_at) / Fold change /veh SNX32 (11753110_a_at) / RFU CDHR5 (11726645_a_at) / Fold change /veh CDHR5 (11726645_a_at) / RFU RCAN1 (11760418_a_at) / Fold change /veh RCAN1 (11760418_a_at) / RFU FAM167A (11723789_a_at) / Fold change /veh FAM167A (11723789_a_at) / RFU FAM26E (11764081_at) / Fold change /veh FAM26E (11764081_at) / RFU ISYNA1 (11749810_s_at) / Fold change /veh ISYNA1 (11749810_s_at) / RFU ACY1 (11761880_at) / Fold change /veh ACY1 (11761880_at) / RFU 11764098_at / Fold change /veh 11764098_at / RFU SAMD14 (11745864_x_at) / Fold change /veh SAMD14 (11745864_x_at) / RFU NPB (11741838_a_at) / Fold change /veh NPB (11741838_a_at) / RFU TMPRSS6 (11731388_a_at) / Fold change /veh TMPRSS6 (11731388_a_at) / RFU KRTAP10-2 (11738614_at) / Fold change /veh KRTAP10-2 (11738614_at) / RFU ARHGAP8 /// PRR5-ARHGAP8 (11727945_x_at) / Fold change /veh ARHGAP8 /// PRR5-ARHGAP8 (11727945_x_at) / RFU KRTAP5-7 /// NADSYN1 (11734609_at) / Fold change /veh KRTAP5-7 /// NADSYN1 (11734609_at) / RFU RASL12 (11751679_a_at) / Fold change /veh RASL12 (11751679_a_at) / RFU CDKN2B (11736163_a_at) / Fold change /veh CDKN2B (11736163_a_at) / RFU PRF1 (11729649_at) / Fold change /veh PRF1 (11729649_at) / RFU, ZNF638 /// ZNF638-IT1 / Fold change vs veh, ZNF638 /// ZNF638-IT1 / RFU, PANK3 / Fold change vs veh, PANK3 / RFU, SH3YL1 / Fold change vs veh, SH3YL1 / RFU, ZEB2 / Fold change vs veh, ZEB2 / RFU, NRIP1 / Fold change vs veh, NRIP1 / RFU, PTTG1IP / Fold change vs veh, PTTG1IP / RFU, CAPN2 / Fold change vs veh, CAPN2 / RFU, MED14 / Fold change vs veh, MED14 / RFU, SNORA58 / Fold change vs veh, SNORA58 / RFU, C1orf63 / Fold change vs veh, C1orf63 / RFU, LRRFIP1 / Fold change vs veh, LRRFIP1 / RFU, NDUFAF7 / Fold change vs veh, NDUFAF7 / RFU, SLC12A2 / Fold change vs veh, SLC12A2 / RFU, IBTK / Fold change vs veh, IBTK / RFU, ESF1 / Fold change vs veh, ESF1 / Fold change vs veh, TMEM50B / RFU, TAOK1 / Fold change vs veh, TAOK1 / RFU, ACBD3 / Fold change vs veh, ACBD3 / RFU, TMA16 / Fold change vs veh, TMA16 / RFU, RWDD3 / Fold change vs veh, RWDD3 / RFU, BCAT1 / Fold change vs veh, BCAT1 / RFU, EDEM3 / Fold change vs veh, EDEM3 / RFU, TMEM33 / Fold change vs veh, TMEM33 / RFU, WDR75 / Fold change vs veh, WDR75 / RFU, AHCTF1 / Fold change vs veh, AHCTF1 / RFU, TFRC / Fold change vs veh, TFRC / RFU, ZDHHC17 / Fold change vs veh, ZDHHC17 / RFU, NOM1 / Fold change vs veh, NOM1 / RFU, ARL8B / Fold change vs veh, ARL8B / RFU, ZBTB11 / Fold change vs veh, ZBTB11 / RFU, TAMM41 / Fold change vs veh, TAMM41 / RFU, KIAA1704 /// LOC100996395 / Fold change vs veh, KIAA1704 /// LOC100996395 / RFU, ING1 / Fold change vs veh, ING1 / RFU, TRMT61B / Fold change vs veh, TRMT61B / RFU, FUBP3 / Fold change vs veh, FUBP3 / RFU, TP53 / Fold change vs veh, TP53 / RFU, TNKS2 / Fold change vs veh, TNKS2 / RFU, ZFP14 / Fold change vs veh, ZFP14 / RFU, ACTR2 / Fold change vs veh, ACTR2 / RFU, PPP3R1 / Fold change vs veh, PPP3R1 / RFU, PIK3R1 / Fold change vs veh, PIK3R1 / RFU, HNRNPA1 / Fold change vs veh, HNRNPA1 / RFU, RNF170 / Fold change vs veh, RNF170 / RFU, ZNF28 / Fold change vs veh, ZNF28 / RFU, RNGTT / Fold change vs veh, RNGTT / RFU, OGT / Fold change vs veh, OGT / RFU, BRD1 / Fold change vs veh, BRD1 / RFU, MARS / Fold change vs veh, MARS / RFU, ZNF655 / Fold change vs veh, ZNF655 / RFU, FAHD1 / Fold change vs veh, FAHD1 / RFU, BDP1 / Fold change vs veh, BDP1 / RFU, LRRCC1 / Fold change vs veh, LRRCC1 / RFU, ARID1A / Fold change vs veh, ARID1A / RFU, ZNF146 / Fold change vs veh, ZNF146 / RFU, ZNF330 / Fold change vs veh, ZNF330 / RFU, GPN3 / Fold change vs veh, GPN3 / RFU, C9orf123 / Fold change vs veh, C9orf123 / RFU, N4BP2L2 / Fold change vs veh, N4BP2L2 / RFU, ARFIP1 / Fold change vs veh, ARFIP1 / RFU, FAM179B / Fold change vs veh, FAM179B / RFU, BCL10 / Fold change vs veh, BCL10 / RFU, UHRF1BP1L / Fold change vs veh, UHRF1BP1L / RFU, BET1 / Fold change vs veh, BET1 / RFU, CNOT2 / Fold change vs veh, CNOT2 / RFU, ZNF268 / Fold change vs veh, ZNF268 / Fold change vs veh, ZNF507 / RFU, DGCR2 / Fold change vs veh, DGCR2 / RFU, WDSUB1 / Fold change vs veh, WDSUB1 / Fold change vs veh, HSP90B1 /// MIR3652 / RFU, ADSS / Fold change vs veh, ADSS / RFU, GK / Fold change vs veh, GK / RFU, ZNF148 / Fold change vs veh, ZNF148 / RFU, TAF9 / Fold change vs veh, TAF9 / RFU, SLC1A5 / Fold change vs veh, SLC1A5 / RFU, SLMO2 / Fold change vs veh, SLMO2 / RFU, ABCC4 / Fold change vs veh, ABCC4 / RFU, LOC101060439 /// RAP1B / Fold change vs veh, LOC101060439 /// RAP1B / RFU, RFX7 / Fold change vs veh, RFX7 / RFU, GTPBP10 / Fold change vs veh, GTPBP10 / RFU, CNEP1R1 / Fold change vs veh, CNEP1R1 / RFU, BIVM-ERCC5 /// ERCC5 / Fold change vs veh, BIVM-ERCC5 /// ERCC5 / RFU, ILF3 / Fold change vs veh, ILF3 / RFU 11762660_at / Fold change /veh 11762660_at / RFU VCAN (11757783_s_at) / Fold change /veh VCAN (11757783_s_at) / RFU DDX43 (11728927_at) / Fold change /veh DDX43 (11728927_at) / RFU KRT8 (11758188_x_at) / Fold change /veh KRT8 (11758188_x_at) / RFU NKD1 (11759106_at) / Fold change /veh NKD1 (11759106_at) / RFU SRD5A1 (11742802_a_at) / Fold change /veh SRD5A1 (11742802_a_at) / RFU TPSAB1 /// TPSB2 (11721975_s_at) / Fold change /veh TPSAB1 /// TPSB2 (11721975_s_at) / RFU GSTM3 (11746129_a_at) / Fold change /veh GSTM3 (11746129_a_at) / RFU IL23R (11737362_x_at) / Fold change /veh IL23R (11737362_x_at) / RFU TMEM51 (11727254_a_at) / Fold change /veh TMEM51 (11727254_a_at) / RFU PIWIL2 (11732686_x_at) / Fold change /veh PIWIL2 (11732686_x_at) / RFU ORM1 (11744905_x_at) / Fold change /veh ORM1 (11744905_x_at) / RFU CCDC152 (11743942_at) / Fold change /veh CCDC152 (11743942_at) / RFU ECM1 (11717891_a_at) / Fold change /veh ECM1 (11717891_a_at) / RFU IL23R (11748794_a_at) / Fold change /veh IL23R (11748794_a_at) / RFU TNFAIP8L3 (11732012_x_at) / Fold change /veh TNFAIP8L3 (11732012_x_at) / RFU MBOAT4 (11741988_at) / Fold change /veh MBOAT4 (11741988_at) / RFU 11764193_at / Fold change /veh 11764193_at / RFU TMEM53 (11763286_at) / Fold change /veh TMEM53 (11763286_at) / RFU MAGEB2 (11727129_at) / Fold change /veh MAGEB2 (11727129_at) / RFU TMEM200A (11744735_a_at) / Fold change /veh TMEM200A (11744735_a_at) / RFU CCDC152 (11751479_a_at) / Fold change /veh CCDC152 (11751479_a_at) / RFU FAM211A (11726209_a_at) / Fold change /veh FAM211A (11726209_a_at) / RFU RGS16 (11746705_a_at) / Fold change /veh RGS16 (11746705_a_at) / RFU VCAN (11755009_s_at) / Fold change /veh VCAN (11755009_s_at) / RFU RHOB (11743442_s_at) / Fold change /veh RHOB (11743442_s_at) / RFU RGS16 (11720943_a_at) / Fold change /veh RGS16 (11720943_a_at) / RFU RGS16 (11720944_at) / Fold change /veh RGS16 (11720944_at) / RFU, VPS4B / Fold change vs veh, VPS4B / RFU, CREB1 / Fold change vs veh, CREB1 / RFU, DNAJC13 / Fold change vs veh, DNAJC13 / RFU, GNAQ / Fold change vs veh, GNAQ / RFU, CDK5R1 / Fold change vs veh, CDK5R1 / RFU, ZRANB3 / Fold change vs veh, ZRANB3 / RFU, CUL4A / Fold change vs veh, CUL4A / RFU, CCNY / Fold change vs veh, CCNY / RFU, UFL1 / Fold change vs veh, UFL1 / RFU, COG3 / Fold change vs veh, COG3 / RFU, DIAPH2 / Fold change vs veh, DIAPH2 / RFU, SKA2 / Fold change vs veh, SKA2 / RFU, AFF3 / Fold change vs veh, AFF3 / RFU, LMF1 / Fold change vs veh, LMF1 / RFU, IPO11 / Fold change vs veh, IPO11 / RFU, DFFB / Fold change vs veh, DFFB / RFU, FOXP1 / Fold change vs veh, FOXP1 / RFU, CARD8 / Fold change vs veh, CARD8 / RFU, STRN3 / Fold change vs veh, STRN3 / RFU, ADK / Fold change vs veh, ADK / RFU, RASSF2 / Fold change vs veh, RASSF2 / RFU, WIPF1 / Fold change vs veh, WIPF1 / RFU, LARP1B / Fold change vs veh, LARP1B / RFU, RASA1 / Fold change vs veh, RASA1 / RFU, RB1 / Fold change vs veh, RB1 / RFU, PPFIA1 / Fold change vs veh, PPFIA1 / RFU, MAT2A / Fold change vs veh, MAT2A / RFU, CCT5 / Fold change vs veh, CCT5 / RFU, WDR92 / Fold change vs veh, WDR92 / RFU, CUX1 / Fold change vs veh, CUX1 / RFU, TTC7A / Fold change vs veh, TTC7A / RFU, TMEM135 / Fold change vs veh, TMEM135 / RFU, DEPTOR / Fold change vs veh, DEPTOR / RFU, CPM / Fold change vs veh, CPM / RFU, DNAJB6 / Fold change vs veh, DNAJB6 / RFU, CACNA2D3 / Fold change vs veh, CACNA2D3 / RFU, DTX4 / Fold change vs veh, DTX4 / RFU, TFCP2 / Fold change vs veh, TFCP2 / RFU, GMCL1 /// GMCL1P1 / Fold change vs veh, GMCL1 /// GMCL1P1 / RFU, AEBP2 / Fold change vs veh, AEBP2 / RFU, SNHG1 /// SNORD22 /// SNORD25 /// SNORD26 /// SNORD27 /// SNORD28 /// SNORD29 /// SNORD31 / Fold change vs veh, SNHG1 /// SNORD22 /// SNORD25 /// SNORD26 /// SNORD27 /// SNORD28 /// SNORD29 /// SNORD31 / Fold change (Aza/veh), C12orf56 (ProbeSet 11735607_a_at) / Fold change (ACY-1035/veh), C12orf56 (ProbeSet 11735607_a_at) / Fold change (Aza/veh), FGFR1OP (ProbeSet 11751329_s_at) / Fold change (ACY-1035/veh), FGFR1OP (ProbeSet 11751329_s_at) / Fold change (Aza/veh), VPS36 (ProbeSet 11739960_a_at) / Fold change (ACY-1035/veh), VPS36 (ProbeSet 11739960_a_at) / RFU SYPL1 (11715823_x_at) / Fold change /veh SYPL1 (11715823_x_at) / RFU IGFBP7 (11715501_s_at) / Fold change /veh IGFBP7 (11715501_s_at) / RFU REEP3 (11722064_at) / Fold change /veh REEP3 (11722064_at) / RFU IGLL1 (11728026_x_at) / Fold change /veh IGLL1 (11728026_x_at): dose or concentration left out as unconfirmed
Conditions: ProbeSet 11725217_a_at; LIST B

## Nc1ncn([C@@H]2O[C@H](CO)[C@@H](O)[C@H]2O)c(=O)n1 [azacitidine]
  RFU, WDSUB1: 50.65 RFU
